The target of one experiment is CRBN/DDB1 (Homo sapiens (Human), UniProt Q96SW2). The class given is binding. Particulars: His tagged CRBN+DDB1, Cy5-labeled Thalidomide probe, one hour; read-out: CRBN HTRF IC50. How it is done: The binding potency was determined using HTRF assay technology (Perkin Elmer). Compounds were serially diluted in DMSO and […] volume was transferred to white 384-well plate.
For orientation: Time-resolved FRET reads energy transfer from a long-lived donor to a nearby acceptor.

The next experiment concerns the target ERα_LBD (GST) (Homo sapiens (Human), UniProt P03372). Kind of experiment: IC50 measurements for binding to ERα_LBD (GST), LanthaScreen TR-FRET competitive binding. Particulars: ERα_LBD (GST) 4 nM, Fluormone ES2 Green tracer, 60 min; read-out: ERα HTRF IC50. The protocol:
In vitro Assay: IC50 Measurements for binding to ERα_LBD (GST) • Final assay conditions: • 1. ERα_LBD (GST) protein: 4 nM • 2. Tb Anti-GST: 2 nM • 3. Fluormone ES2 Green tracer: 3 nM • 4. Incubation time: 60 min • 5. DMSO: 1% • 6. Assay buffer: Adding 1M DTT to Nuclear receptor Buffer K for final 5 mM DTT. • 7. ZPE: 1% DMSO • 8. HPE: 1 μM ARV_471 (positive control) • 9. LanthaScreen® TR-FRET ERα Competitive Binding Assay (ThermoFisher, #A^15887) • 100× Compound preparation
1) Cherry pick 2 μL 10 mM compound stock to column 1 of a 384 intermediate plate. • 2) Add 18 μL DMSO to column 1 to dilute compound to 1 mM. • 3) Transfer 10 μL 1 mM compound to column 1 of a LDV plate. • 2) Add 6 μl DMSO to column 2-10 of the LDV plate. • 3) Compounds undergo 3-fold serial dilution (3 μL+6 μL) in DMSO. • 4) Transfer 120 nL compound solution to assay plate. ZPE: 120 nL 100% DMSO • Procedure:
Complete nuclear receptor buffer K was prepared by adding 1 M DTT to nuclear receptor buffer K for a final concentration of 5 mM DTT. Complete nuclear receptor buffer K must be prepared fresh daily, 2X protein solution was prepared using complete nuclear receptor buffer K containing 8 nM ERα_LBD (GST) and 4 nM Tb Anti-GST. Then, 2X Fluormone ES2 Green tracer (6 nM) was prepared using complete nuclear receptor buffer K. Add 6 μL 2X Fluormone ES2 green tracer into a compound plate (PerkinElmer 6008289) by dragonfly with one-tips-addition. Subsequently, 6 μL 2× protein solution was added into the plate. The 384-well plate was mixed on a plate shaker and incubated at room temperature protected from light for 60 min. The plate was scaled with a cover to minimize evaporation. The plate was read at wavelengths of 520 nm and 495 nm. The TR-FRET ratio was calculated by dividing the emission signal at 520 nm by the emission signal at 495 nm. A binding curve was generated by plotting the emission ratio vs, the log [ligand]. To determine the IC50 value, fit the data using XL-fit for a sigmoidal dose-response.

Another experiment concerns the target ER in MCF-7 cells (Homo sapiens (Human), UniProt P03372). Kind of experiment: In-cell Western (ICW) ER degradation assay in MCF-7 cells. Conditions: for DC50: MCF-7, ER degradation, read-out: MCF7 DC50. The class given is cell-based.
For the next experiment, the system named is MCF-7 cells. Kind of experiment: CellTiter-Glo (CTG) cell proliferation assay in MCF-7 cells. Particulars: MCF-7 cell proliferation. The class given is cell-based. The text has this: CellTiter-Glo® (CTG) Assays in MCF-7 and T47D Cell Lines.
In vitro Assay: MCF-7 and T47D CTG assay
In general terms: Cellular ATP, detected with luciferase, serves as a proxy for viable cell number.

The target in the next experiment is ER in T47D cells (Homo sapiens (Human), UniProt P03372). Kind of experiment: In-cell Western (ICW) ER degradation assay in T47D cells. The class given is cell-based. Conditions: for DC50: ER degradation.
Chain of ER in T47D cells (P03372 whole entry): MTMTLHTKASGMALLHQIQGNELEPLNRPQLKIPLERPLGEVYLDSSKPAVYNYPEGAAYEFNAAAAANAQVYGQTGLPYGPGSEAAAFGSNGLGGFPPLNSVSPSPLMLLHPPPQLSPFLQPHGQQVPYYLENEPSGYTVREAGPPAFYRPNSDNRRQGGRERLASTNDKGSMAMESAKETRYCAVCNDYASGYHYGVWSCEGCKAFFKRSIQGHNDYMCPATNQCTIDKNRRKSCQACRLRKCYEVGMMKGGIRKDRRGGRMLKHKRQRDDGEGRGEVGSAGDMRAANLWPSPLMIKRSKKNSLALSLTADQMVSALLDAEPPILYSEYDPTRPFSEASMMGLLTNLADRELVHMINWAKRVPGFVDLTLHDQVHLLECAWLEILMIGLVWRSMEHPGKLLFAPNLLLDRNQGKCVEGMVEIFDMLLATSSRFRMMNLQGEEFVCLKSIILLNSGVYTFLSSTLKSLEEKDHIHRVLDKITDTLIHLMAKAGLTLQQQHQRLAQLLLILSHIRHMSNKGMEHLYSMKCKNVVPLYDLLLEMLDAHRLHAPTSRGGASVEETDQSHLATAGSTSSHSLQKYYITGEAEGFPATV
Setting [1] is: MCF7, MCF-7, maximal ER degradation, 16 hrs treatment, read-out: MCF7 Dmax.
The mark [2] stands for this setting: Homo sapiens, MCF7, 144 h, Day 6.
Setting [3] is: maximal ER degradation, 16 hrs treatment, read-out: T47D Dmax.
The mark [4] stands for this setting: MCF7, read-out: MCF7 Dmax, MCF-7, maximal ER degradation, 16 hrs treatment.
Where [5] appears, read: read-out: T47D Dmax, T47D, maximal ER degradation, 16 hrs treatment.

pIC50: −log10 of the molar value. Where two headings read alike, the source gives them in different places.

The values below come from US20260028354A1, “TETRAHYDRONAPHTHALENE DERIVATIVES AS ESTROGEN RECEPTOR DEGRADERS” (REGENT OF THE UNIVERSITY OF MICHIGAN, priority 2022, published 2026).

Chain of ERα_LBD (GST) (P03372 311-547): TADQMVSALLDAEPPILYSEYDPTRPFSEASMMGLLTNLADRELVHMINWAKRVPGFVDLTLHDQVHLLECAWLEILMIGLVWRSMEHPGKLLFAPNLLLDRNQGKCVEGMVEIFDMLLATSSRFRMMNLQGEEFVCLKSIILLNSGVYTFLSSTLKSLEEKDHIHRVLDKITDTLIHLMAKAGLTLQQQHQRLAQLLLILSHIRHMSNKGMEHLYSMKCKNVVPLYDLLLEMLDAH
Chain of ER in MCF-7 cells (P03372 whole entry): as the sequence (P03372 whole entry) above
Chain of CRBN/DDB1 (Q96SW2 whole entry, species assumed): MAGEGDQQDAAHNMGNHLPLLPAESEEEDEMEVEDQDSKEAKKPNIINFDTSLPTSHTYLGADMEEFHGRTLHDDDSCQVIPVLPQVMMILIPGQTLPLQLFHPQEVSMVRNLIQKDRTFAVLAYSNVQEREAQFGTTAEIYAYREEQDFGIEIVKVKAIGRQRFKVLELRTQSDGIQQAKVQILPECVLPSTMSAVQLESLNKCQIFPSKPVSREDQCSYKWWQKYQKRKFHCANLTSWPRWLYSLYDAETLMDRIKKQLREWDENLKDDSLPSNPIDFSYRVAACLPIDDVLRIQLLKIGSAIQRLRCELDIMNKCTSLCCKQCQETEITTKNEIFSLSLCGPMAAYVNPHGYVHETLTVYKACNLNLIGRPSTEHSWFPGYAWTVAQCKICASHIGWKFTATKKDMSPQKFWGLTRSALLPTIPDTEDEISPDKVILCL
Chain of CRBN/DDB1 (Q16531 whole entry partner, species assumed): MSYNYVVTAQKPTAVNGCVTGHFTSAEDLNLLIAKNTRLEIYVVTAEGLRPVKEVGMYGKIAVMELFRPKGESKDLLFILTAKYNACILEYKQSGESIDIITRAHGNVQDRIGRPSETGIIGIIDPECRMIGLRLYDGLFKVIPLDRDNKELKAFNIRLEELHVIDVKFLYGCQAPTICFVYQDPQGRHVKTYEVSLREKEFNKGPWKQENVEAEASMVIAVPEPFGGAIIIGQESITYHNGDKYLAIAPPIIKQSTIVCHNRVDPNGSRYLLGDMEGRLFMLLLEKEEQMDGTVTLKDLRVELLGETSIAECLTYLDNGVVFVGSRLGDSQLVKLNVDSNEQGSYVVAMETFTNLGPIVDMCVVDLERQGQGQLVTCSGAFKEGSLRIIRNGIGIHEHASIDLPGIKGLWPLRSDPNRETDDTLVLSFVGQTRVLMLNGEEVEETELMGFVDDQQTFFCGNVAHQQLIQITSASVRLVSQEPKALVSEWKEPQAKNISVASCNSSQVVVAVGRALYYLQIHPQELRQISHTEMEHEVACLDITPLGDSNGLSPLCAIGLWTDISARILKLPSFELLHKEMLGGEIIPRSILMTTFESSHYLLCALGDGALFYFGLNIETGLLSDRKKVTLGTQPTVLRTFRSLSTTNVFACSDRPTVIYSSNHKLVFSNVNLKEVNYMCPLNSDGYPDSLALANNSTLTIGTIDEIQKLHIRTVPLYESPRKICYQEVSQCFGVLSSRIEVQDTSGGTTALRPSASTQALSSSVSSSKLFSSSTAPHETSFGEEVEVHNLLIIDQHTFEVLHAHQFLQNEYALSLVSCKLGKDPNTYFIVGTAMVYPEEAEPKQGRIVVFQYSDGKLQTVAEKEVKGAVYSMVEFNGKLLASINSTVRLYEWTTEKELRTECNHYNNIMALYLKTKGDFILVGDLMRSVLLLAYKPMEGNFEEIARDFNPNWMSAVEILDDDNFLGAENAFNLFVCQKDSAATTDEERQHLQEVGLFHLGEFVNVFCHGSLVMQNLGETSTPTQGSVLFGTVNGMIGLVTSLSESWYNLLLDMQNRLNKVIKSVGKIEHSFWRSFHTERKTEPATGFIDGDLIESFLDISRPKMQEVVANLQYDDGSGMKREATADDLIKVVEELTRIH

With “(S)-3-(1′-(((S)-2-(4-((1R,2S)-6- hydroxy-2-phenyl-1,2,3,4- tetrahydronaphthalen-1- yl)phenyl)-5-oxa-2- azaspiro[3.4]octan-7-yl)methyl)- 7-oxo-5,7-dihydro-2H,6H- spiro[furo[2,3-f]isoindole-3,4′- piperidin]-6-yl)piperidine-2,6- dione [Compound A76]”, the pIC50 at CRBN/DDB1 was 6.30 to 7.30; at ERα_LBD (GST), over 8.00; in the experiment on MCF-7 cells (Day 6, read-out: MCF7 IC50), over 8.00. Moreover, on ER in MCF-7 cells (16 hrs treatment), the DC50 is under 1 nM. Besides, the “MCF7 Dmax” value on ER in MCF-7 cells (MCF-7, maximal ER degradation, 16 hrs treatment) is “A (“A”: >=75%)”.
`O=C1CC[C@H](N2Cc3c(ccc4c3OC[C@H]3CN(CC5CCN(c6ccc([C@@H]7c8ccc(O)cc8CC[C@@H]7c7ccccc7)cc6)CC5)CCN43)C2=O)C(=O)N1` [Compound A71, (S)-3-((R)-7-((1-(4-((1R,2S)-6-hydroxy-2-phenyl-1,2,3,4-tetra-hydronaphthalen-1-yl)phenyl)-piperidin-4-yl)methyl)-1-oxo-1,3,5,5a,6,7,8,9-octahydro-2H-pyrazino[1′,2′:4,5][1,4]oxazino [2,3-e]isoindol-2-yl)piperidine-2,6-dione]: the pIC50 on CRBN/DDB1 was 6.30 to 7.30; at ERα_LBD (GST), over 8.00; in the experiment on MCF-7 cells (setting [2]), over 8.00. For the same compound, the maximal degradation (Dmax) on ER in MCF-7 cells (setting [1]) was over 75%. For the same compound, the DC50 at ER in MCF-7 cells (16 hrs treatment) is under 1 nM.
Turning to `O=C1CC[C@H](N2Cc3cc4c(cc3C2=O)OC[C@@H]2CN(C[C@@H]3COC5(C3)CN(c3ccc([C@@H]6c7ccc(O)cc7CC[C@@H]6c6ccccc6)cc3)C5)CCN42)C(=O)N1` [Compound A73, (S)-3-((S)-3-(((R)-2-(4-((1R,2S)-6-hydroxy-2-phenyl-1,2,3,4-tetrahydronaphthalen-1-yl)phenyl)-5-oxa-2-azaspiro[3.4]octan-7-yl)methyl)-8-oxo-1,2,3,4,4a,5,8,10-octahydro-9H-pyrazino[1′,2′:4,5][1,4]oxazino[2,3-f]isoindol-9-yl)piperidine-2,6-dione], the negative logarithm of the IC50 (pIC50) at CRBN/DDB1 is 5.30 to 6.30; on ERα_LBD (GST), over 8.00; in the experiment with MCF-7 cells (setting [2]) it was 7.00 to 8.00. The Dmax on ER in MCF-7 cells (setting [1]) and on ER in T47D cells (setting [3]) was over 75% each time. For the same compound, the DC50 at ER in MCF-7 cells (16 hrs treatment) and on ER in T47D cells (16 hrs treatment) was under 1 nM throughout.
Turning to `O=C1CCC(NC(=O)c2ccc3c(n2)OC[C@H]2CN(CC4CCN(c5ccc([C@@H]6c7ccc(O)cc7CC[C@@H]6c6ccccc6)cc5)CC4)CCN32)C(=O)N1` (stereo partly drawn) [Compound A2, (4aR)-N-(2,6-dioxopiperidin-3-yl)-3-((1-(4-((1R,2S)-6-hydroxy-2-phenyl-1,2,3,4-tetrahydronaphthalen-1-yl)-phenyl)piperidin-4-yl)meth-yl)-1,2,3,4,4a,5-hexahydro-pyrazino[1,2-d]pyrido[2,3-b] [1,4]oxazine-8-carboxamide], the pIC50 at CRBN/DDB1 was 5.30 to 6.30; on ERα_LBD (GST), over 8.00. Further, the Dmax at ER in MCF-7 cells (setting [1]) and at ER in T47D cells (setting [3]) was over 75% each time. Besides, the DC50 on ER in MCF-7 cells (16 hrs treatment) and at ER in T47D cells (16 hrs treatment) was under 1 nM in each case.
`O=C1CC[C@H](N2Cc3cc4c(cc3C2=O)OCC42CCN(C[C@@H]3COC4(CCN(c5ccc([C@H]6c7ccc(O)cc7CC[C@H]6c6ccccc6)cc5)CC4)C3)CC2)C(=O)N1` [Compound A25, (S)-3-(1′-(((R)-8-(4-((1S,2R)-6-hydroxy-2-phenyl-1,2,3,4-tetrahydronaphthalen-1-yl)phenyl)-1-oxa-8-azaspiro[4.5]decan-3-yl)methyl)-7-oxo-5,7-dihydro-2H,6H-spiro[furo[2,3-f]isoindole-3,4′-piperidin]-6-yl)piperidine-2,6-dione]: the negative-log IC50 (pIC50) at ERα_LBD (GST) and in the experiment with MCF-7 cells (setting [2]) was over 8.00 each time. In addition, the Dmax at ER in MCF-7 cells (setting [4]) and at ER in T47D cells (setting [5]) was over 75% each time. Also, the DC50 on ER in MCF-7 cells (16 hrs treatment) and at ER in T47D cells (16 hrs treatment) was under 1 nM each time.
In the case of `O=C1CC[C@H](N2Cc3c(ccc4c3OCC43CCN(CC4CC5(CCN(c6ccc([C@@H]7c8ccc(O)cc8CC[C@@H]7c7ccccc7)cn6)CC5)C4)CC3)C2=O)C(=O)N1` [Compound A116, (S)-3-(1′-((7-(5-((1S,2S)-6-hydroxy-2-phenyl-1,2,3,4-tetra-hydronaphthalen-1-yl)pyridin-2-yl)-7-azaspiro[3.5]nonan-2-yl)methyl)-6-oxo-6,8-dihydro-2H,7H-spiro[furo[2,3-e]iso-indole-3,4′-piperidin]-7-yl)-piperidine-2,6-dione], the pIC50 on CRBN/DDB1 is over 7.30; on ERα_LBD (GST), over 8.00. Moreover, the figures for the Dmax on ER in MCF-7 cells (setting [4]) and at ER in T47D cells (setting [5]) were 50 to 75% and over 75%, respectively. Further, the DC50 on ER in MCF-7 cells (16 hrs treatment) and on ER in T47D cells (16 hrs treatment) was under 1 nM in each case.
For the compound `O=C1CC[C@H](N2Cc3cc4c(cc3C2=O)OC[C@H]2CN(C[C@@H]3COC5(CCN(c6ccc([C@@H]7c8ccc(O)cc8CC[C@@H]7c7ccccc7)cc6)CC5)C3)CCN42)C(=O)N1` (single isomer, unassigned) [Compound A18], the negative logarithm of the IC50 (pIC50) is 5.30 to 6.30 at CRBN/DDB1 and under 7.00 at ERα_LBD (GST). For the same compound, the Dmax on ER in MCF-7 cells (setting [1]) and on ER in T47D cells (setting [3]) was 50 to 75% throughout. For the same compound, the DC50 at ER in MCF-7 cells (16 hrs treatment) and on ER in T47D cells (16 hrs treatment) was under 1 nM each time.
Regarding `COc1cc(N2CCC3(CC2)CC(CN2CCC4(CC2)COc2c4ccc4c2CN([C@H]2CCC(=O)NC2=O)C4=O)C3)ccc1[C@@H]1c2ccc(O)cc2CC[C@@H]1c1ccccc1` [Compound A95, (S)-3-(1′-((7-(4-((1S,2S)-6-hydroxy-2-phenyl-1,2,3,4-tetra-hydronaphthalen-1-yl)-3-meth-oxyphenyl)-7-azaspiro[3.5]nonan-2-yl)methyl)-6-oxo-6,8-dihydro-2H,7H-spiro[furo[2,3-e]isoindole-3,4′-piperidin]-7-yl)piperidine-2,6-dione], the pIC50 on CRBN/DDB1 was over 7.30; at ERα_LBD (GST) it was over 8.00. Besides, the Dmax at ER in MCF-7 cells (setting [4]) and on ER in T47D cells (setting [5]) was over 75% in each case. Also, the DC50 at ER in MCF-7 cells (16 hrs treatment) and on ER in T47D cells (16 hrs treatment) was under 1 nM each time.
For the compound `COc1cc(N2CCC3(CC2)CC(CN2CCN4c5cc6c(cc5OC[C@@H]4C2)C(=O)N([C@H]2CCC(=O)NC2=O)C6)C3)ccc1[C@H]1c2ccc(O)cc2CC[C@H]1c1ccccc1` (single isomer, unassigned) [Compound A11], the values for the pIC50 at CRBN/DDB1 and at ERα_LBD (GST) were 6.30 to 7.30 and 7.00 to 8.00, respectively. The Dmax on ER in MCF-7 cells (setting [1]) and at ER in T47D cells (setting [3]) was 50 to 75% in each case. In addition, the DC50 was in the range of 10 to 100 nM on ER in MCF-7 cells (16 hrs treatment) and 1 to 10 nM on ER in T47D cells (16 hrs treatment).
For the compound `O=C1CC[C@H](N2Cc3c(ccc4c3OC[C@H]3CN(C[C@@H]5COC6(C5)CN(c5ccc([C@@H]7c8ccc(O)cc8CC[C@@H]7c7ccccc7)cc5)C6)CCN43)C2=O)C(=O)N1` (single isomer, unassigned) [Compound A69], the pIC50 at CRBN/DDB1 was 6.30 to 7.30; on ERα_LBD (GST) it was over 8.00. Further, the values for the Dmax on ER in MCF-7 cells (setting [1]) and on ER in T47D cells (setting [3]) were 50 to 75% and over 75%, respectively. Also, the DC50 at ER in MCF-7 cells (16 hrs treatment) and at ER in T47D cells (16 hrs treatment) was under 1 nM each time.
On to `O=C1CC[C@H](NC(=O)c2ccc3c(n2)OC[C@H]2CN(CC4CCN(c5ccc([C@@H]6c7ccc(O)cc7CC[C@@H]6c6ccccc6)cc5)CC4)CCN32)C(=O)N1` (single isomer, unassigned) [Compound A6], for which the pIC50 at CRBN/DDB1 is 5.30 to 6.30; on ERα_LBD (GST), over 8.00. For the same compound, the Dmax at ER in MCF-7 cells (setting [1]) and at ER in T47D cells (setting [3]) was 50 to 75% in each case. For the same compound, the DC50 at ER in MCF-7 cells (16 hrs treatment) and at ER in T47D cells (16 hrs treatment) was under 1 nM each time.

In general, pIC50 refers to the IC50 on a negative log10 scale, so that one unit is a factor of ten. Usually DC50 stands for the concentration at which degradation of the target reaches its halfway point. The Dmax is the greatest extent of degradation seen.
